Measurements reported in US20120095036A1, “NOVEL SUBSTITUTED INDAZOLE AND AZA-INDAZOLE DERIVATIVES AS GAMMA SECRETASE MODULATORS” (priority 2009, published 2012).

What was measured:
Assay type in all cases: cell-based
Aβtotal = test: Method 1: Aβtotal sandwich ELISA on media of SKNBE2 cells carrying APP 695 wild type; details: Homo sapiens, SKNBE2 cells APP 695 wild type, 18 hours
Outline: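 SKNBE2 cells expressing wild-type APP695 treated with compound for 18 h in Ultraculture; secreted Aβtotal measured by 6E10-capture/biotinylated 4G8 sandwich ELISA with fluorogenic peroxidase read-out. IC50 from 4-parameter fit, top/bottom fixed at 100/0, Hill slope 1; toxicity checked by WST-1.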

Aβ42 [1] = test: Method 2: Aβ42 Alphalisa on supernatant of SKNBE2 cells carrying APP 695 wild type; details: Homo sapiens, SKNBE2 cells APP 695 wild type, overnight
Outline: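 SKNBE2 cells expressing wild-type APP695 (10^4/well) were incubated overnight at 37 °C with compound at several concentrations. Secreted Aβ42 (C-terminal/N-terminal antibody pair) and Aβtotal (N-terminal/4G8 pair) were measured by AlphaLISA in the supernatant. IC50 values came from 4-parameter fits of percent of untreated control.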

Aβ42 [2] = test: Method 1: Aβ42 sandwich ELISA on media of SKNBE2 cells carrying APP 695 wild type (γ-secretase-modulating activity); details: Homo sapiens, SKNBE2 cells APP 695 wild type, 18 hours
Outline: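 SKNBE2 cells expressing wild-type APP695 exposed to compounds for 18 h in Ultraculture with 1% glutamine. Secreted Aβ42 in media quantified by sandwich ELISA (C-terminal capture, biotinylated 3D6 detection, TMB, 450 nm). IC50 from 4-parameter fit, top/bottom fixed 100/0, Hill slope fixed 1; toxicity checked by WST-1.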

SMILES | IC50 (Aβtotal) [µM] | IC50 (Aβ42 [1]) [µM] | IC50 (Aβ42 [2]) [µM]
COc1cc(Nc2cccc3cn(CC(F)(F)F)nc23)ccc1-c1cnc(C)o1 [Compound 6, N-[3-methoxy-4-(2-methyl-5-oxazolyl)phenyl]-2-(2,2,2-trifluoroethyl)-2H-indazol-7-amine] | > 3 | 0.162 | 0.152
COc1cccc(-n2cc3cccc(Nc4ccc(-n5cnc(C)c5)c(OC)c4)c3n2)c1 [Compound 1, N-[3-methoxy-4-(4-methyl-1H-imidazol-1-yl)phenyl]-2-(3-methoxyphenyl)-2H-indazol-7-amine] | > 3 | 0.081 | 0.046
COc1cc(Nc2cccc3cn(CC4CC4)nc23)ccc1-c1cnc(C)o1.Cl [Compound 38, 2-(cyclopropylmethyl)-N-[3-methoxy-4-(2-methyl-5-oxazolyl)phenyl]-2H-indazol-7-amine HCl] | > 3 | 0.234 | 0.518
COc1cc(Nc2cccc3cn(Cc4ccc(F)cc4)nc23)ccc1-n1cnc(C)c1 [Compound 15, 2-[(4-fluorophenyl)methyl]-N-[3-methoxy-4-(4-methyl-1H-imidazol-1-yl)phenyl]-2H-indazol-7-amine] | > 3 | 0.014 | 0.075

More lines, now with the values ahead:

IC50 (Aβtotal) [µM] | IC50 (Aβ42 [1]) [µM] | IC50 (Aβ42 [2]) [µM] | SMILES
> 3 | 0.12 | 0.091 | COc1cccc(-n2nc3c(Nc4ccc(-c5cnc(C)o5)c(OC)c4)nccc3c2C)c1 [Compound 42, N-[3-methoxy-4-(2-methyl-5-oxazolyl)phenyl]-2-(3-methoxyphenyl)-3-methyl-2H-pyrazolo[3,4-c]pyridin-7-amine]
> 1 | 0.007 | 0.007 | COc1cccc(-n2nc3c(Nc4ccc(-n5cnc(C)c5)c(OC)c4)cccc3c2C)c1 [Compound 2, N-[3-methoxy-4-(4-methyl-1H-imidazol-1-yl)phenyl]-2-(3-methoxyphenyl)-3-methyl-2H-indazol-7-amine]
> 1 | 0.015 | 0.028 | COc1cccc(-n2nc3c(Nc4ccc(-c5cnc(C)o5)cc4)cccc3c2C)c1 [Compound 29, 2-(3-methoxyphenyl)-3-methyl-N-[4-(2-methyl-5-oxazolyl)phenyl]-2H-indazol-7-amine]
